Measured values as given in patent US12377074B2, “Treatment for Wolfram syndrome” (YALE UNIVERSITY, priority 2019, dated 2025).
pEC50: −log10 of the molar value. “Also recorded” adds a separate entry of the source.

Experiments:
INS-1 cells (WT) = assay: Cell survival after high glucose, WT INS-1 cells (first set); type: cell-based, rat; conditions: for cell survival after treatment with 31 mM glucose for 48 hours (glucose induced cell death): survival normalized to % survival at 1 mM glucose
Method: (§1) Survival is normalized to % survival at 1 mM glucose.
as §1

WFS1 KO INS-1 cells = assay: Cell survival after high glucose, WFS1 KO INS-1 cells (first set); type: cell-based, rat; conditions: for cell survival after treatment with 31 mM glucose for 48 hours (glucose induced cell death): 31 mM glucose 48 h, survival normalized to % survival at 1 mM glucose
Method: as §1
The concentration range for protection from cell death by high glucose in WFS1 KO cells is similar.

WFS1-WT INS1 cells [1] = assay: CellTiter-Glo cell viability assay, WFS1-WT cells; type: cell-based, rat; conditions: 30 mM additional glucose (30G) 48 h, normalized to CTRL, 10 μM in FIG. 19C
Method: (§2) CellTiter-Glo™ (CTG) assay (Promega) was used to quantify ATP-dependent bioluminescence as an indicator of cell viability. To assess cell viability, INS1 cells were plated in white 96-well plates (Cat. 07-200-628, Fisher Scientific) at a density of 2×10^3 cells per well and treated the following day with high glucose and/or the indicated drugs for 48 hours before imaging. After treatment was completed, 100 μL of CTG solution was added to each well and 20 minutes later, reading was performed using a Tecan Infinite M1000 Pro microplate reader using the following setting: 5 s orbital shaking (3 mm, 216 rpm), followed by imaging in luminescence mode with 500 ms integration time.
(§3) Because intracellular calcium is an important determinant of cell viability, we measured cell viability in WFS1-WT and WFS1-KO cells. A luminescent, ATP-based assay was used. […] Following hyperglycemia (additional 30 mM glucose for 48 h), we observed an approximately 40% reduction in cell viability in WFS1-KO cells, whereas cell viability in WFS1-WT cells was only 15% lower than under control conditions (FIG. 19C). WFS1-KO cells could be rescued by WFS1 re-expression (SI Appendix, FIG. S5A). These findings are supported by previous reports showing that WFS1 deficiency causes progressive loss of pancreatic β-cells.

WFS1-KO INS1 cells [2] = assay: CellTiter-Glo cell viability assay, WFS1-KO cells; type: cell-based, rat; conditions: for cell viability after hyperglycemia / cell viability at baseline: WFS1-KO cells; for cell viability after hyperglycemia: 30 mM additional glucose (30G) 48 h, normalized to CTRL, 10 μM in FIG. 19C; for cell viability at baseline: no additional glucose
Method: CellTiter-Glo™ (CTG) assay (Promega) was used to quantify ATP-dependent bioluminescence as an indicator of cell viability. […] After treatment was completed, 100 μL of CTG solution was added to each well and 20 minutes later, reading was performed using a Tecan Infinite M1000 Pro microplate reader using the following setting: 5 s orbital shaking (3 mm, 216 rpm), followed by imaging in luminescence mode with 500 ms integration time.
Because intracellular calcium is an important determinant of cell viability, we measured cell viability in WFS1-WT and WFS1-KO cells. A luminescent, ATP-based assay was used.

WFS1-OE INS1 cells = assay: CellTiter-Glo cell viability assay, WFS1-OE cells; type: cell-based, rat; conditions: 30 mM additional glucose (30G) 48 h
Method: as §2, §3

WFS1-KO INS1 cells [3] = assay: Resting cytosolic calcium imaging (Fura-2-AM), WFS1-KO cells; type: cell-based, rat; conditions: 10 μM, 24 h treatment
Method: (§4) 2×10^5 cells were plated on each coverslip 2 days before imaging in INS1 medium without G418. HEPES-buffered saline (140 mM NaCl. 1.13 mM MgCl2, 4.7 mM KCL, 2 mM CaCl2, 10 mM D-glucose, and 10 mM HEPES, adjusted to pH 7.4 with NaOH) was used to prepare calcium dye solution and during imaging. In calcium-free HEPES buffer, CaCl2 was replaced with MgCl2 and 0.1 mM EGTA was added to chelate calcium. Fura-2-AM dye powder (Thermo Fisher) was dissolved to 4 μM in calcium-containing HEPES buffer supplemented with 0.03% Pluronic acid (Thermo Fisher). On the day of imaging, each coverslip was incubated in dye solution for 45 min in the dark at room temperature. Each coverslip was then washed 3 times in HEPES-buffered saline solution before calcium imaging began. Calcium measurements were performed with a Hammamatsu Orca R2 camera attached to a Zeiss microscope with a Sutter Lambda DG4 for excitation ratio imaging. Cells were imaged using sequential excitation at 340/380 nm (Fura-2-AM). Images were acquired with emission bandwidth of 501 to 550 nm every second. The raw 340 and 380 signals for each cell were subtracted by corresponding background signal before a 340/380 ratio was calculated. Max amplitude and area under the curve were calculated using PRISM Statistical Software 8. Rate of rise was quantified as the gradient between 25% and 75% maximum amplitude. […]

WFS1-WT INS1 cells [4] = assay: Resting cytosolic calcium imaging (Fura-2-AM), WFS1-WT cells; type: cell-based, rat; conditions: 10 μM, 24 h treatment
Method: as §4

WFS1-KO INS1 cells [5] = assay: Glucose-stimulated insulin secretion (insulin ELISA), WFS1-KO cells; type: cell-based, rat; conditions: 10 μM drug; for glucose-stimulated insulin secretion: 9 mM glucose stimulation; for difference in glucose-stimulated insulin secretion between WFS1-WT and WFS1-KO cells: after stimulation with 9 mM glucose
Method: (§5) For glucose-stimulated insulin secretion studies, INS1 cells were plated on 6-well plates at a density of 6×10^5 cells per well. After 24 hours, cells were incubated with drugs for another 24 hours. Two days after plating, the insulin ELISA assays were performed following a previously published protocol. In detail, preincubating cells in DMEM-base (Sigma) supplemented with 2.5 mM glucose for 1.5 h was followed by a 45 min incubation in DMEM-base with either 2.5 mM glucose for basal secretion or 9 mM glucose for stimulated secretion as indicated. 200 μl of supernatant were collected for analysis of insulin concentration using the Rat High Range ELISA kit (80-INSRTH-E01, ALPCO). Cells were washed with ice cold PBS and lysed in 1 mL 0.1% Triton X-100. Insulin levels were normalized to total protein measured by Micro BCA protein assay kit (23235, Thermo Fisher Scientific).

WFS1-WT INS1 cells [6] = assay: Glucose-stimulated insulin secretion (insulin ELISA), WFS1-WT cells; type: cell-based, rat; conditions: 10 μM drug, 24 h
Method: as §5

WFS1-deficient cells [7] = conditions: cited from earlier work
WFS1-deficient cells [8] = conditions: cited from earlier work; remark: listed apart in the source
[9] = test system: calpain activity in INS-1 cells; conditions: siRNA against WFS1, 10 μM dantrolene 48 h, then 0.5 μM thapsigargin 6 h, cleaved spectrin relative to GAPDH; cited from earlier work
[10] = cited from earlier work

SMILES | cell survival after treatment with 31 mM glucose for 48 hours (glucose induced cell death) (INS-1 cells (WT); 31 mM glucose 48 h) | cell survival after treatment with 31 mM glucose for 48 hours (glucose induced cell death) (WFS1 KO INS-1 cells) | cell viability after hyperglycemia (WFS1-WT INS1 cells [1]) | cell viability after hyperglycemia (WFS1-KO INS1 cells [2]) | cell viability at baseline (WFS1-KO INS1 cells [2]) | cell viability after hyperglycemia (WFS1-OE INS1 cells) | resting cytosolic calcium (WFS1-KO INS1 cells [3]) | resting cytosolic calcium (WFS1-WT INS1 cells [4]) | glucose-stimulated insulin secretion (WFS1-KO INS1 cells [5]; WFS1-KO cells, 24 h) | difference in glucose-stimulated insulin secretion between WFS1-WT and WFS1-KO cells (WFS1-KO INS1 cells [5]) | also measured
[Li] [lithium] | no effect | no effect |  |  |  |  |  |  |  |  | 
CN(C)CCCN1c2ccccc2Sc2ccc(Cl)cc21 [chlorpromazine] | no effect | no effect |  |  |  |  |  |  |  |  | cell survival after treatment with 31 mM glucose for 48 hours (glucose induced cell death) (INS-1 cells (WT); 31 mM glucose 48 h, listed as chlorprmazine): no effect on survival; cell survival after treatment with 31 mM glucose for 48 hours (glucose induced cell death) (WFS1 KO INS-1 cells; listed as chlorprmazine): no effect on survival
CCC(NC(=O)OCc1ccccc1)C(=O)C(=O)NCCCN1CCOCC1 (centres unmarked) [calpain inhibitor XI] |  |  | fully rescued cell viability back to baseline | fully rescued cell viability back to baseline; also recorded: rescued cell viability back to normal level | did not significantly affect cell viability | fully rescued cell viability back to baseline | lowered the resting cytosolic calcium in WFS1-KO cells to the level of WFS1-WT cells; also recorded: reversed elevated cytosolic calcium | without affecting | reversed the impairment; also recorded: can be reversed | ameliorated the difference | cell viability after hyperglycemia (WFS1-WT INS1 cells [1]; listed as C.I.): rescued; high glucose-induced loss of cell viability, dose dependence (WFS1-KO INS1 cells [2]; WFS1-KO cells (clone #1), high glucose, dose series): reversed glucose toxicity-induced loss of cell viability in a dose-dependent manner; also recorded: dose-dependently reversed; cell viability after hyperglycemia (WFS1-KO INS1 cells [2]; listed as C.I.): rescued; insulin secretion (WFS1-WT INS1 cells [6]): did not affect
CCCC(CCC)C(=O)O [valproic acid] | no effect | no effect |  |  |  |  |  |  |  |  | cell survival after treatment with 31 mM glucose for 48 hours (glucose induced cell death) (INS-1 cells (WT); 31 mM glucose 48 h, listed as valproate): no effect on survival; cell survival after treatment with 31 mM glucose for 48 hours (glucose induced cell death) (WFS1 KO INS-1 cells; listed as valproate): no effect on survival
CC(C)C(=O)c1c(C(C)C)nn2ccccc12 [ibudilast] | rescued viability; also recorded: did protect cell survival | rescued viability | fully rescued cell viability back to baseline | fully rescued cell viability back to baseline; also recorded: rescued cell viability back to normal level | did not significantly affect cell viability; also recorded: slightly raised cell viability | fully rescued cell viability back to baseline | lowered the resting cytosolic calcium in WFS1-KO cells to the level of WFS1-WT cells; also recorded: reversed elevated cytosolic calcium | without affecting | reversed the impairment; also recorded: can be reversed | ameliorated the difference | cell survival at low (normal) glucose (INS-1 cells (WT); 1 mM glucose): no effect; also recorded: does not alter cell survival; concentration giving nearly full recovery/protection of survival (INS-1 cells (WT); 31 mM glucose 48 h): 1 µM; pEC50 (INS-1 cells (WT); 31 mM glucose 48 h, read-out: half max effect on survival): ~6.52; concentration range for protection from cell death by high glucose, compared with WT (WFS1 KO INS-1 cells; high glucose): similar; cell viability after hyperglycemia (WFS1-WT INS1 cells [1]; listed as IBU): rescued; cell viability after hyperglycemia (WFS1-KO INS1 cells [2]; listed as IBU): rescued; insulin secretion at baseline (WFS1-KO INS1 cells [5]; WFS1-KO cells, 2.5 mM glucose, 24 h): enhanced insulin secretion at baseline; insulin secretion at baseline (WFS1-WT INS1 cells [6]; 2.5 mM glucose): enhanced insulin secretion at baseline
O=C1CN(/N=C/c2ccc(-c3ccc([N+](=O)[O-])cc3)o2)C(O)=N1 [Dantrolene, dantrolene] |  |  |  |  |  |  |  |  |  |  | cytosolic calcium levels (WFS1-deficient cells [7]): restored; apoptosis (WFS1-deficient cells [8]): suppressed; calpain activity [9]: reduced; side effects of prolonged use [10]: liver toxicity
